Patent US20100284925A1, “Small Molecule Intervention for Obesity” (priority 2006, published 2010)

Key:
[1] = Body weight, food intake, serum parameters and adiposity in leptin-deficient ob/ob mice; type: in vivo
Experimental: FIG. 4. Effects of prieurianin on blood insulin, glucose and NEFA levels. Normal and ob/ob mice were treated with 5 mg/kg of prieurianin and serum samples were then collected for (FIG. 4A) insulin; (FIG. 4B) glucose; and (FIG. 4C) non-esterified fatty acid (NEFA) profiling. Results are means of three animals per group for each treatment. Blue column, normal C57BL/6J; and red column, leptin-deficient ob/ob mice.
FIG. 5. Effects of prieurianin on adiposity in ob/ob mice. The leptin-deficient ob/ob mice were treated with 5 mg/kg of prieurianin and subcutaneous and visceral adipose tissues were excised and weighed. Results are means of three to five animals per group as indicated (n).
Prieurianin was administered intraperitoneally to 12-14 week-old normal C57BL/6J mice and the genetically leptin-deficient ob/ob mice (2 or 5 mg/kg) twice a week for two weeks. Controls received equivolume injections of drug vehicle. Body weight and food intake were measured every three days, and blood samples were collected at the end of the experiment.
Obesity contributes to hypertension, high serum cholesterol, low HDL cholesterol, and hyperglycemia, thus potentially leading to higher risk of cardiovascular disease. Abdominal obesity especially correlates with metabolic risk factors. The leptin-deficient ob/ob mice are hyperlipidemic, and hyperglycemic. To test whether prieurianin altered the metabolic or endocrinological parameters in addition to appetite, the serum lipid profile, insulin and glucose levels were measured.
To further examine the effects of prieurianin on the adiposity of the normal C57BL/6J and the ob/ob mice, we measured their visceral and subcutaneous body fat.

[2] = Body weight in leptin-receptor deficient db/db mice; type: in vivo
Experimental: FIG. 15A. Groups of 10 db/db mice were given either 3 or 5 mg/kg of prieurianin i.p. daily for 30 days.
(§1) The effects of prieurianin were tested in three additional mouse models of obesity including the genetically hyperinsulinemic leptin-receptor deficient db/db, the Ceacam−/− glucose intolerant/diabetic, and the diet-induced obese mice. Prieurianin was administered intraperitoneally (i.p.) to 12-14 week-old db/db mice daily (3 or 5 mg/kg) for 30 days. The diet-induced obese Ceacam−/− diabetic mice were fed a high fat diet for 4 weeks for fattening, followed by prieurianin treatment (3 or 5 mg/kg) for 3 weeks. Vehicle treated controls received equivolume injections of Captisol (CyDex Inc., Lenexa, Kans.). Body weight and food intake were measured every three days, and blood samples were collected at the end of the experiment.

[3] = type: in vivo, mice
Experimental: FIG. 15B. Genetically diabetic Ceacam^−/− knockout mice were fed high fat diet for fattening for 4 weeks followed by daily prieurianin treatment (3 or 5 mg/kg) for 21 days. Vehicle treated db/db and Ceacam^−/− mice were given equivolume of Captisol. Results are the means S.E. of 10 animals per group.
as §1

NIH-3T3/L1 preadipocytes [4] = test: Proliferation of NIH-3T3/L1 preadipocytes (daily cell counting); type: cell-based
Experimental: FIG. 6. Inhibition of NIH-3T3/L1 preadipocytes proliferation by prieurianin. Cells were treated with various concentrations (0.5, 1, and 2 μM) of prieurianin and growth was assessed by counting daily for 7 days. Results are means±S.E. of triplicate experiments.

NIH-3T3/L1 preadipocytes [5] = test: Differentiation of NIH-3T3/L1 preadipocytes into adipocytes (oil red O or Nile Red staining); type: cell-based
Experimental: FIG. 7. […] NIH-3T3/L1 cells were induced into differentiation and simultaneously treated with 2 μM of prieurianin. Differentiated cells were stained with oil red O—FIG. 7A, undifferentiated control.
Histogram represents A510 nm absorbance of oil red O stain isopropanol extracts from cells. Results are means±S.E. of triplicate experiments.
FIG. 19. Effects of bufalin on preadipocyte differentiation, and dedifferentiation/delipidation in adipo-cytes. NIH-3T3/L1 cells were induced into differentiation and simultaneously treated with either 1 μM of bufalin or 2 μM of prieurianin. Differentiated cells were stained with Nile Red. Alternatively, preadipocytes were induced into differentiation and five days following differentiation, cells were treated with either 1 μM of bufalin or 2 μM of prieurianin for an additional five days and followed by staining with Nile Red. Stained cells were evaluated by fluorescence microscopy.
To determine the effects of prieurianin on the differentiation of preadipocytes to adipocytes, the NIH-3T3/L1 preadipocytes were treated with or without the drug at the same time when induction of differentiation was initiated.

PLTP = PLTP release into conditioned media (Western blot); type: cell-based
Experimental: FIG. 10. Release of adiponectin and PLTP by preadipocytes and adipocytes, and in serum of normal mice. Preadipocytes (B and D) were treated with 2 μM of prieurianin and media collected after 36 hrs for Western blot analysis of either adiponectin (A and B) or PLTP (C and D). Alternatively, five days following differentiation, conditioned media of adipocyets (A and C) were collected for Western analysis. E. Serum of normal C57BL/6J mice given prieurianin or topotecan (0, 2, 5, and 10 mg/kg) was analyzed by Western blot for PLTP.
The expression and secretion of PLTP by preadipocytes and adipocytes was also assessed. Thus, preadipocytes produced and released both the low and the high molecular weight forms of PLTP, while adipocytes secreted only the low molecular weight form (see FIGS. 10C and 10D) into the conditioned media.

C/EBPα = C/EBPα response element luciferase reporter in L1 preadipocytes; type: cell-based; conditions: prieurianin 2 μM
Experimental: (§2) FIG. 18. Effects of prieurianin on C/EBPα and β and PPARγ mediated transcription in adipogenesis. Response elements corresponding to C/EBPα and β and PPARγ are cloned into the pGL3 basic luciferase reporter plasmid. L1 preadipocytes were contransfected with the reporter plasmid either in the presence or the absence of the corresponding transcription factors cloned into expression vector, followed by treatment with 2 μM of prieurianin. Cells were harvested for luciferase assay 15-24 hrs later. Results are means±S.E. of triplicate experiments.

C/EBPβ = C/EBPβ response element luciferase reporter in L1 preadipocytes; type: cell-based; conditions: prieurianin 2 μM
Experimental: as §2

PPARγ = PPARγ response element luciferase reporter in L1 preadipocytes; type: cell-based; conditions: prieurianin 2 μM
Experimental: as §2

[6] = Observation of overt toxicity in treated animals; type: in vivo; conditions: animals given the drug for the duration of the experiments
[7] = tested on: 20-hydroxyecdysone activity; conditions: drosophila cells in culture; cited from earlier work

For C=C1[C@@H]([C@@]2(C)[C@@H](OC(C)=O)CC(=O)O[C@](C)(COC(C)=O)[C@@H]2C(=O)OC)[C@@H](OC=O)[C@H](OC(=O)[C@H](O)[C@H](C)CC)[C@@]2(C)[C@H](c3ccoc3)CC(=O)[C@]12O [prieurianin], the “serum PLTP activity” value [1] was “decrease in serum PLTP activity”, the NEFA levels ([1]; 5 mg/kg) was “only a modest decrease in NEFA levels” and the “hyperglycemia (glucose level)” value ([1]; 5 mg/kg) was “reversed to levels comparable to those of normal controls”. For the same compound, the insulin levels ([1]; 5 mg/kg) was “reduce by approximately three to four-fold”, the “subcutaneous and visceral adipose tissues” value ([1]; 5 mg/kg) was “significantly reduced both the subcutaneous and visceral adipose tissues” and the “decrease in food intake” value ([1]; 5 mg/kg group, relative to untreated or vehicle treated controls) was ≤ 50%. The “reduction of total body fat” value ([1]; 5 mg/kg, vs untreated and vehicle-treated controls) was “greater than 50%”, the “reduction in total body weight” value ([1]; 2 or 5 mg/kg i.p. twice a week, after two weeks) was “up to 10%” and the total cholesterol level ([1]; serum) was “significantly lower”. For the same compound, the triglyceride levels ([1]; serum) was “no significant changes”, the HDL levels ([1]; vs untreated and vehicle-treated) was “approximately two-fold lower” and the weight loss ([2]; 3 or 5 mg/kg i.p. daily) was “No weight loss was observed”. For the same compound, the “attenuation of weight gain” value ([2]; over three weeks, vs untreated or vehicle-treated controls) was 50%, the “body weight relative to pre-fattening” value ([3]; 3 mg/kg treated group) was “Body weight returned to pre-fattening level” and the toxicity ([3]; Ceacam−/− mice given 5 mg/kg) was “euthanized after 14 days of treatment due to severe weight loss and unknown toxicity”. For the same compound, the “subcutaneous or visceral fats in postmortem analysis” value ([3]; Ceacam−/− mice given 5 mg/kg, relative to controls) was “Little subcutaneous or visceral fats were observed”, the body weight loss ([3]; diet-induced obese Ceacam−/− mice, 3 or 5 mg/kg) was 20-26% and the reduced food intake ([3]; diet-induced obese Ceacam−/− mice, compared to controls) was > 50%. The proliferation of preadipocytes (NIH-3T3/L1 preadipocytes [4]; 0.5, 1 and 2 μM, 7 days) was “inhibited the proliferation of the NIH-3T3/L1 preadipocytes in a dose-dependent manner”, the inhibition at 2 µM (NIH-3T3/L1 preadipocytes [4]; Mus musculus, NIH3T3, 168 h, 2 μM, day 7) was 50% and the preadipocytes differentiation (NIH-3T3/L1 preadipocytes [5]; 2 μM, in the absence of staurosporine) was “almost completely inhibited preadipocytes differentiation”. For the same compound, the “differentiation of preadipocytes into lipid accumulating adipocytes” value (NIH-3T3/L1 preadipocytes [5]; treated at induction of differentiation, oil red O) was “dose-dependently prevented the differentiation of preadipocytes”, the “release of PLTP by adipocytes” value (PLTP; adipocytes) was “induced an increase in the release of only the low molecular weight form of PLTP” and the “release of PLTP by preadipocytes” value (PLTP; preadipocytes) was “release of the low but not the high molecular form of PLTP was reduced”. The “transactivation potential of C/EBPα” value (C/EBPα) was “inhibits the transactivation potential”, the “transactivation potential of C/EBPβ” value (C/EBPβ) was “inhibits the transactivation potential” and the “transactivation potential of PPARγ” value (PPARγ) was “inhibits the transactivation potential”. The overt toxicity [6] was “no overt toxicity was observed” and the “antagonism against 20-hydroxyecdysone activity” value [7] was “antagonism against 20-hydroxyecdysone activity”.
